In patent US12084521B2, “TLR9 inhibitors to suppress inflammatory response to pathogens” (University Of Maryland, Baltimore, priority 2018, dated 2024):
“Also recorded” adds a separate entry of the source. No end group written: not given here.

What was measured:
TLR9 signaling [1] = assay: ODN 1668-induced cytokine mRNA expression in BMDM (quantitative real time PCR); assay type: cell-based, mouse
Protocol: (§1) The cDNA obtained was amplified with gene-specific primers for mouse HPRT, TNFα, IL-10, IL-12-p40, or IL-6 and Fast SYBR Green™ master mix (Applied Biosystemsm) as previously described.
Mouse BMDMs were incubated in the presence of a 10, 20 or 40 μM decoy peptide for 30 minutes prior to stimulation with ODN 1668 (1 μM). […] Data represent the means±SEM of at least three independent experiments. The statistical significance of changes in cytokine mRNA was determined by a one-way ANOVA test; *p<0.001. Peptides 9R3 and 9R34 have overlapping sequences (see Table 1).
To investigate inhibition of TLR9 signaling by 9R34 analogues, the following work was performed. Mouse BMDMs were incubated in the presence of a 10, 20 or 40 μM decoy peptide for 30 minutes prior to stimulation with ODN 1668 (1 μM). Cytokine mRNA expression was measured 1 hour after ODN 1668 challenge and normalized to the expression of HPRT. See also Table 1. Data represent means±SEM of at least three independent experiments.

TLR9 signaling [2] = assay: ODN 1668-induced cytokine secretion in BMDM supernatants (ELISA); assay type: cell-based, mouse; conditions: 5 hour supernatants, ODN 1668 1 μM
Protocol: (§2) Mouse TNFα and IL-12-p40 concentrations were measured in supernatants using ELISA kits from Biolegend™, Inc.
BMDMs were incubated in the presence of a decoy peptide for 30 minutes prior to stimulation with ODN 1668 (1 μM). The statistical significance of changes in cytokine levels was determined by the one-way ANOVA test; *p<0.01.

myDDosome = conditions: BMDM pretreated with CPDP; MyD88 IP, IRAK4 blot
Protocol: Four million BMDMs per well were plated in 6-well plates and treated with CPDP for 30 minutes prior to stimulation with ODN 1668 for 90 minutes. Cells were lysed in 600 p L of buffer containing 20 mM HEPES (pH 7.4), 150 mM NaCl, 10 mM NaF, 2 mM Na3VO4, 1 mM EDTA, 1 mM EGTA, 0.5% Triton X-100, 0.1 mM DTT, and protease inhibitor cocktail (Roche™). Cell extracts were incubated overnight with 1 μg of anti-mouse MyD88 antibody (AF3109) (R&D Systems™, followed by a 4-hour incubation with 20 μL protein G Sepharose beads (ThermoFisherm Scientific). The beads were then washed 3 times with 500 μL of lysis buffer and boiled in 60 μL of Laemmli sample buffer (Bio-Rad™). Cell extracts were electrophoresed on 10% acrylamide gel by SDS-PAGE and transferred to PVDF membrane (Bio-Rad™). Rabbit anti-MyD88 IgG was purchased from Cell Signaling™. Mouse anti-IRAK4 IgG was obtained from Abcam™. Alkaline phosphatase-conjugated secondary antibodies against mouse and rabbit IgG were purchased from Cell Signaling™. The stabilized substrate for alkaline phosphatase was from Promega™.
TLR stimulation causes formation of myDDosome, a signaling complex composed through interactions of IRAK and MyD88 death domains. To test if peptides inhibit myDDosome formation, MyD88 was immunoprecipitated from lysates of ODN-stimulated BMDM and the precipitates analyzed for IRAK4 presence. BMDM were lysed and lysates immunoprecipitated with anti-MyD88 Ab and immune complexes assessed with anti-IRAK4 Ab 3 hours after cell treatment with ODN 1668.

TLR1/2 signaling = assay: TNFα mRNA in BMDM stimulated with Pam3C; assay type: cell-based, mouse; conditions: peptide 40 μM; P3C 0.33 μM; 1 h
Protocol: as §1
(§3) CPDPs 9R34 and 9R11 were examined for inhibition of TLR1/2, TLR4, and TLR7 signaling. BMDMs were stimulated with Pam3C, E. coli LPS, or R848 and TNFαmRNA was measured 1 hour after stimulation. Mouse BMDM were treated with 40 μM of the indicated peptides for 30 minutes prior to stimulation with ODN 1668 (1 μM), E. coli LPS (0.1 μg/mL), R848 (2.85 μM), or P3C (0.33 μM). R848 and P3C were used to specifically activate TLR7 and TLR2 signaling, respectively. TNFαmRNA expression was measured 1 h after ODN 1668 challenge and normalized to the expression of HPRT. See results in FIG. 8A, FIG. 8B, and FIG. 8C. […] The statistical significance of changes was determined by a one-way ANOVA test; *p<0.01.

TLR7 signaling = assay: TNFα mRNA in BMDM stimulated with R848; assay type: cell-based, mouse; conditions: peptide 40 μM; R848 2.85 μM; 1 h
Protocol: as §1, §3

TLR4 signaling = assay: LPS-induced TNFα secretion in BMDM (ELISA); assay type: cell-based, mouse; conditions: peptide 20 or 40 μM; E. coli LPS 0.1 μg/mL; 5 hour BMDM supernatants
Protocol: as §2
BMDM were treated with 20 or 40 μM of 9R34 for 30 minutes prior to stimulation with E. coli LPS (0.1 μg/mL). TNFαconcentration in supernatants was evaluated by ELISA 5 hours after cell stimulation. See results in FIG. 9. Data represent means±SEM of three independent experiments.

TLR9-induced lethality = assay: Survival of D-Gal pretreated mice after ODN 1668; assay type: in vivo, C57Bl/6J mice; conditions: ODN 1668 lower dose 3.93 nmol/mouse; peptide 200 nmol/mouse i.p.
Protocol: Systemic cytokine levels were measured in plasma samples obtained 1, 3, and 5 hours after intraperitoneal (i.p.) administration of 7.86 nmol (50 μg) of ODN 1668 or 67 nmol of Pam3C per mouse, using ELISA kits from Biolegend™ Inc. CPDP were dissolved in PBS and administered i.p. at the dose of 200 nmol per mouse 1 hour before administration of a TLR agonist. For survival experiments, mice were sensitized to TLR9 agonists by i.p. injection of 20 mg of D-Gal 30 minutes before administration of peptides or PBS. ODN 1668 was used at the doses of 3.93 or 7.86 nmol/mouse (25 or 50 μg/mouse) 1.5 hours after D-Gal. Animal survival was monitored for 50 hours. All agents were administered i.p. in 500 μL volume of PBS. Animals had free access to food and water during the observation period. All animal experiments were conducted in accordance with the national guidelines for the care and use of laboratory animals under a protocol that was approved by the UMB IACUC.
With the exception for LPS, administration of a purified TLR agonist is not lethal to mice. Mice, however, can be sensitized to TLR agonists by pretreatment with D-galactosamine (D-Gal). Survival of C57Bl/6J mice pretreated with D-galactosamine and challenged with different doses of ODN 1668 was tested. Mice were first administered with D-Gal intraperitoneally at the dose of 20 mg/mouse. Thirty minutes later mice were mock-treated with PBS or treated with a CPDP at the dose 200 nmol/mouse. ODN 1668 was administered 1 hour after peptide treatment at the dose of 3.93 or 7.86 nmol/mouse.

TLR9 signaling [3] = assay: TNFα mRNA in BMDM at varying ODN 1668 concentration, comparison with INH-18; assay type: cell-based, mouse; conditions: inhibitor 30 min before varying ODN 1668, 1 hour
Protocol: To investigate inhibition of TLR9 signaling by 9R34 further, the following work was conducted. Mouse BMDMs were treated with the effective dose of either INH-18 (an ODN-based, competitive inhibitor of TLR9, commercially available through Invivogen™) or 9R34, 30 minutes prior to stimulation with varying concentration of ODN 1668. TNFα mRNA expression was measured 1 hour after ODN 1668 challenge and normalized to the expression of HPRT.

[4] = Stability and solubility of peptide solutions
[5] = BMDM, peptide 10, 20 or 40 μM 30 min before ODN 1668 (1 μM), 1 hour, normalized to HPRT

Sequence: GRWALRLCLEERD (also: antennapedia vector attached) [Peptide 9R34]
- TNFα mRNA expression (TLR9 signaling [1]; BMDM, peptide 10, 20 or 40 μM 30 min before ODN 1668 (1 μM), 1 hour after stimulation, normalized to HPRT): significantly suppressed
- IL-10 mRNA expression (TLR9 signaling [1]; [5]): significantly suppressed
- IL-12-p40 mRNA expression (TLR9 signaling [1]; [5]): significantly suppressed
- inhibition of TLR9 signaling (ODN 1668-induced cytokine mRNA, overall) (TLR9 signaling [1]; BMDM, peptide 10, 20 or 40 μM, ODN 1668 1 μM): most potent inhibitor; also recorded: inhibit TLR9 signaling; also recorded: inhibited TLR9 signaling more potently than 9R3
- expression of all tested cytokines at lower peptide concentrations (TLR9 signaling [1]; peptide 10 or 20 μM): inhibited expression of all tested cytokines
- secretion of IL-12-p40 (TLR9 signaling [2]; peptide 20 μM): also effective
- production/secretion of TNFα (TLR9 signaling [2]; peptide 40 μM): decreased the production of TNFα
- secretion of IL-12-p40 (TLR9 signaling [2]; peptide 40 μM): reduced secretion
- ODN 1668-induced myDDosome formation (myDDosome): prevented ODN 1668-induced myDDosome formation
- signaling induced by TLR1/2 agonist (TNFα mRNA) (TLR1/2 signaling): did not inhibit
- signaling induced by TLR7 agonist (TNFα mRNA) (TLR7 signaling): did not inhibit
- LPS-induced TNFα secretion (TLR4 signaling): did not reduce
- protection of D-Gal pretreated mice (survival) (TLR9-induced lethality): full protection
- TNFα/HPRT mRNA expression ratio with increased concentrations of agonistic ODN (TLR9 signaling [3]): efficient inhibition in a wider range of agonist concentrations
- stability of millimolar stock solutions [4]: unstable
- stability of peptide solutions in the presence of high protein concentrations [4]: also unstable
